Consider one compound from US10954235B2, “Crystalline forms of valbenazine salts” (Sandoz AG, priority 2017, dated 2021).

This data set can be described thus: Differential scanning calorimetry (DSC), thermal stability. In kind it is physicochemical. The conditions noted are these: heating rate 10 K/min; judged from first endotherm. The method, then:
Differential scanning calorimetry (DSC) was performed with a DSC 7 (Perkin-Elmer, Norwalk, Conn., USA) using a Pyris 2.0 software. 4.7307±0.0005 mg sample (using a UM3 ultramicrobalance, Mettler, Greifensee, CH) were weighed into Al-Pans (25 microliter) and sealed with a cover, which was perforated by a needle. The sample was heated at a rate of 10 K/min. Dry nitrogen was used as the purge gas (purge rate: 20 mL/min). Differential scanning calorimetry (DSC) was performed with a DSC 7 (Perkin-Elmer, Norwalk, Conn., USA) using a Pyris 2.0 software. 7.115±0.0005 mg sample (using a UM3 ultramicrobalance, Mettler, Greifensee, CH) were weighed into Al-Pans (25 microliter) and sealed with a cover, which was perforated by a needle. The sample was heated at a rate of 10 K/min. Dry nitrogen was used as the purge gas (purge rate: 20 mL/min).
(In general: DSC measures the heat that a sample takes up or gives off during a temperature scan.)

Each structure is given as a SMILES string.

For the compound `COc1cc2c(cc1OC)[C@H]1C[C@@H](OC(=O)[C@@H](N)C(C)C)[C@H](CC(C)C)CN1CC2` [Example 1, ((S)-(2R,3R,11bR)-3-isobutyl-9,10-dimethoxy-2,3,4,6,7,11b-hexahydro-1H-pyrido[2,1-a]isoquinolin-2-yl 2-amino-3-methylbutanoate) ditosylate], the “stability against temperature stress (DSC)” value was “very stable against temperature stress”.
